The nature of the data set: gradient 5% acetonitrile 3 min, to 50% in 2 min, to 85% in 15 min, held 3 min, 100 µL/min. As to conditions: column: Zorbax Extend-C18 2.1 x 50 mm; eluents: water / acetonitrile, 0.1% formic acid. In short, it runs like this: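 Pure standards were run in mixtures of ~100 molecules by HPLC coupled to a quadrupole time-of-flight mass spectrometer. The column was a Zorbax Extend-C18 (2.1 × 50 mm, 1.8 μm) at 100 μL/min, with water and acetonitrile each containing 0.1% formic acid, in positive and negative ionization mode. Dead and dwell volumes were 40 μL and 900 μL. Retention time was taken from computationally picked adduct peaks, each manually inspected, with data collected over 3 months.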
On to `CCN1CCC2(CC1)N=C(c1ccc(Cl)cc1)CC(c1cccc(OC)c1O)N2` (stereo unspecified), for which the RP-LC retention time is 621 s.
In the case of `Cc1ccc(Sc2nccnc2N2CCC(C(=O)N3CCN(c4ccc(F)cc4)CC3)CC2)cc1` it was 1200 s; in that of `CN(CCc1noc(COc2cccc(C(F)(F)F)c2)n1)C(=O)c1ccco1`, 919 s; in that of `CCN(CC)S(=O)(=O)c1ccc2nc(NCc3ccc4c(c3)OCO4)cnc2c1`, 964 s.
The compound `CCN1C(=O)COc2ccc(-c3noc(-c4ccccc4Br)n3)cc21` returned an RP-LC retention time of 1180 s.
`Cc1cc(C)n(-c2ccc(N3CCN(C(=O)c4ccc(S(N)(=O)=O)cc4)CC3)nn2)n1`: the RP-LC retention time was determined as 620 s.
In the case of `O=C(C1=CN(c2ccc(F)c(F)c2)c2ccccc2S1(=O)=O)N1CCOCC1` it was 751 s; in that of `CCCCOc1ccc(-c2nc(C3CC(=O)N(c4ccc(C)cc4)C3)no2)cc1` (stereo unspecified), 1310 s.
In the case of `CCCc1nnc(NC(=O)CSc2ncc(-c3ccccc3)[nH]2)s1` it was 632 s.
The compound `CNC(=O)Cc1csc(-c2ccccc2F)n1` returned an RP-LC retention time of 725 s.
For `Fc1ccc(-c2nc(-c3ccc(-n4ccnc4)nc3)no2)cc1` the value was 732 s; for `Cc1ccc(C)c(NC(=O)c2cc(C)n3nccc3n2)c1`, 1030 s; for `CC(C)Cn1c(=O)c(C(=O)NCc2cccnc2)nc2cccnc21`, 613 s.
Turning to `Cn1nc(-c2nc(-c3ccc(F)cc3)no2)c2c1CCN(C(=O)C1CCCO1)C2` (stereo unspecified), the RP-LC retention time turned out to be 789 s.
In turn, `O=C(Cn1cnc2nc3c(cc2c1=O)CCCC3)Nc1cccc(C(F)(F)F)c1` yielded an RP-LC retention time of 823 s.
For `O=C(Nc1cnc(-c2ccc(Cl)cc2)nc1)c1cncc(Br)c1` the value was 1070 s; for `CCc1nnc(-c2ccc3ccn(CC(=O)Nc4cc(OC)c(OC)c(OC)c4)c3c2)o1`, 777 s; for `CCn1cnc(S(=O)(=O)N2CCCC(C(=O)N3CCN(c4ccccn4)CC3)C2)c1` (stereo unspecified), 575 s.
For `CCn1nccc1C(=O)N1CCCC1c1cccc(F)c1` (stereo unspecified) the value was 812 s.
`COc1ccc(S(=O)(=O)N2CCN(c3cc(C)nc(N4CCOCC4)n3)CC2)cc1Cl` registered an RP-LC retention time of 692 s.
`CCN1CCn2c(nc3cc(C(=O)NCc4ccccc4C(F)(F)F)ccc32)C1=O`: the RP-LC retention time stood at 741 s.
In the case of `Cc1cccc2c(C(=O)NC3CC3)cc(N3CCCC3)nc12` it was 593 s; in that of `COc1ccccc1-c1nc(Cc2noc(-c3ccccc3F)n2)c(C)o1`, 1020 s.
On to `O=C(c1cn2ccccc2n1)N1CCN(c2ccccc2F)CC1`, for which the RP-LC retention time came out at 652 s.
For `Cc1[nH]c(=O)[nH]c(=O)c1CCc1nnc(SCC(=O)NCc2ccco2)o1` the value was 566 s.
In the case of `CC(C)c1ccc(S(=O)(=O)N(CCN2CCCCC2C)CC(=O)N2CCNCC2)cc1` (stereo unspecified) it was 610 s.
In the case of `CCCNC(=O)Cn1c(C)nc2ccccc21`, the RP-LC retention time is 571 s.
For `COc1ccc(NC(=O)Cn2nc(N3CCCC3)c3ccccc3c2=O)cc1` the value was 847 s; for `Cc1ccc2[nH]c(=O)c(CCC(=O)N3CCN(c4ncccn4)CC3)cc2c1`, 686 s; for `CCOc1ccc(C(=O)N2CCC3(CC2)N=C(c2ccccc2)NO3)cc1`, 799 s.
In the case of `COCC(=O)Nc1ccc2nc(-c3ccc(Cl)cc3)cc(OCC(=O)OC)c2c1` it was 756 s; in that of `O=C1CCC(C(=O)N2CCCn3ccnc3C2C2CCCC2)=NN1` (stereo unspecified), 564 s.
The compound `CCn1c(C(=O)NCc2ccccc2OC)cc2sccc21` gave an RP-LC retention time of 1010 s.
`COc1cccc(C2Cn3nnc(-c4nc(-c5ccccc5Cl)no4)c3CO2)c1` (stereo unspecified) registered an RP-LC retention time of 1150 s.
For `COC(=O)CNC(=O)N1CCCCC1c1nc(CCOCC2CC2)no1` (stereo unspecified), the RP-LC retention time stood at 711 s.
`CCc1noc(NC(C)=O)c1-c1ccc(C)c(S(=O)(=O)NC2CCC(C)CC2)c1` (stereo unspecified) came in with an RP-LC retention time of 937 s.
Turning to `CCOC(=O)c1nc(NCc2cccc(OC)c2)c2ccccc2n1`, the RP-LC retention time was 754 s.
For `CN(Cc1ccco1)C(=O)c1ccc(NC(=O)C2CC2)cc1N1CCCCCC1`, the RP-LC retention time came out at 869 s.
`CC1Cc2ccccc2N1Cc1nnc(-c2ccccc2)o1` (stereo unspecified) returned an RP-LC retention time of 972 s.
`COc1ccccc1CNC(=O)Cn1nc(C)c2sc(-c3ccccc3)nc2c1=O` came in with an RP-LC retention time of 884 s.
For `CCc1nc(-c2csc(S(=O)(=O)N3CCCC(C(=O)NCc4ccccc4)C3)c2)no1` (stereo unspecified) the value was 960 s.
For `O=C(c1ccccc1)N1CCN(c2nc(CN3CCOCC3)cs2)CC1` the value was 852 s; for `O=S(=O)(NCc1ccc(Br)cc1)c1ccc2c(c1)-c1oncc1CO2`, 958 s; for `CC(C)Oc1cccnc1N(C)C1CCN(Cc2ccccc2)CC1`, 627 s.
In turn, `Cc1ccc(-c2nc(-c3ccc4c(c3)oc(=O)n4C)no2)cc1` had an RP-LC retention time of 1120 s.
For `Cc1cc(N2CCCCC2)nc(N2CCN(C(=O)C3CCCC3)CC2)n1` the value was 713 s; for `CCc1nnc(NC(=O)C2CCN(C(=O)c3ccc(F)cc3)CC2)s1`, 679 s; for `Cc1cccc2c(C(=O)N3CCCC3)cc(N(C)C)nc12`, 605 s.
The compound `CCCCCCNC(=O)C1CC(=O)N(CCc2c[nH]c3ccc(C)cc23)C1` (stereo unspecified) returned an RP-LC retention time of 864 s.
In the case of `CSc1ccccc1NC(=O)CCCn1cccc1` it was 1000 s; in that of `COc1ccc(CC(C)(O)CNC(=O)c2cccc(C(F)(F)F)c2)cc1` (stereo unspecified), 823 s.
For `O=C(Cn1cc(-c2ccccc2)c2ncnc(N3CCOCC3)c21)N1CCCC1` the value was 651 s; for `COc1cc(OC)cc(C(=O)N2CCC(c3cc(N)on3)CC2)c1`, 677 s.
In the case of `COc1ccc(C(=O)COc2ccccc2OC)cc1` it was 825 s; in that of `CCOC(=O)C1CCc2sc(NC(=O)C3COCC(=O)N3Cc3ccccc3)nc21` (stereo unspecified), 730 s; in that of `O=C(NCCc1csc(-c2ccccc2)n1)c1ccccc1C(F)(F)F`, 883 s.
Regarding `COCCn1ncc(N2CCC(C(=O)N(C)CC(=O)Nc3ccc(F)cc3)C2)cc1=O` (stereo unspecified), the RP-LC retention time was 650 s.
For `Cc1cc(-c2nn3c(COc4ccccc4)nnc3s2)no1` the value was 855 s.
For `Cn1cc(C2=CCN(S(=O)(=O)c3cccc(C(F)(F)F)c3)CC2)c2cccnc21` the value was 1050 s.
`COC(=O)c1c(-c2ccc(Cl)cc2)noc1N1CCN(c2ccccn2)CC1`: the RP-LC retention time was found to be 1000 s.
In the case of `O=C(Cc1ccc(Cl)s1)Nc1nnc(-c2cc3ccccc3o2)o1` it was 843 s.

The values above are taken from the METLIN SMRT retention time set (Domingo-Almenara et al. 2019).
